# Earlier results, collected in patent US20050182030A1, “Liquid injectable formulation of disodium pamidronate” (American Pharmaceutical Partners, Inc., priority 2001, published 2005).
# Assays:
# [1] = approximately normal ambient conditions
# [2] = in vivo
# [3] = liquid formulation
structure (smiles),measurement,setting,value
"NCCC(O)(P(=O)([O-])O)P(=O)([O-])O.O.O.O.O.O.[Na+].[Na+] [pentahydrate, pamidronate disodium pentahydrate]",Stability to storage,[1],stable to storage
"NCCC(O)(P(=O)([O-])O)P(=O)([O-])O.[Na+].[Na+] [pamidronate, 3-amino-1-hydroxypropane-1,1-diphosphonate disodium]",Absorption from the gastrointestinal system,[2],poor absorption
same,Stability during long-term storage,[3],unstable/reactive
NCCC(O)(P(=O)(O)O)P(=O)(O)O [pamidronic acid],Solubility in water,,not soluble in water
